Data as given in patent US12024707B2, “Methods and compositions for modulating lncRNAs and methods of treatment based on lncRNA expression” (Washington University, priority 2020, dated 2024).
Counter-ions that a name gives are not always drawn.

Key:
RAMS11 = RAMS11 knockdown by ASOs, qPCR; type: cell-based; details: in vivo optimized LNA GapmeR ASOs
Excerpt: (§1) Exiqon's locked nucleic acid (LNA) GapmeRs antisense oligonucleotides (ASOs) were used. They contain a central stretch (gap) of monomers flanked by blocks of LNA modified nucleotides that (i) increase the target affinity and nuclease resistance of the oligo and (ii) the gap activates RNase H cleavage of the target RNA upon binding. The LNATM oligonucleotides can be designed for any region of the target RNA sequence. In addition, the design flexibility afforded by LNATM means that it is possible to design multiple LNATM antisense oligonucleotides to the same target sequence, which serve as useful experimental controls. […] NO: 41) and […] NO: 42). Total RNA was isolated for each CRC cell line using Takara Bio NucleoSpin RNA (Takara, Mountain View, CA). Total RNA was then transcribed to cDNA with SuperScript Ill First strand cDNA system (Invitrogen) and quantified using Fast Sybr Green Master Mix (Invitrogen) as per the manufacturer's protocol. Primer sequences are available in TABLE 5.

LoVo cells = type: cell-based
Excerpt: as §1, with “42).” for “42). Total RNA was isolated for each CRC cell line using Takara Bio NucleoSpin RNA (Takara, Mountain View, CA). Total RNA was then transcribed to cDNA with SuperScript Ill First strand cDNA system (Invitrogen) and quantified using Fast Sybr Green Master Mix (Invitrogen) as per the manufacturer's protocol. Primer sequences are available in TABLE 5.”

[1] = tested on: LoVo RAMS11 CRISPR KO cells; assay: Individual drug IC50 / cell viability assays in RAMS11 CRISPR KO cells; type: cell-based; details: for effect of cell viability: LoVo RAMS11 CRISPR KO cells
Experimental: The NIH approved oncology library of 119 drugs (AOD6 plate 4825-1 and AOD6 plate 4826) was received from the NIH National Cancer Institute DTP Developmental Therapeutics Program. Drugs were diluted in DMSO to 1 mM and the well assignments were rearranged so drugs were confined to the inner 60 wells of 96-well plates. HT29 RAMS11 overexpressing Clone1 and Clone2 cell lines were seeded at 5000 cells per well in a 96-well plate. The next day serial diluted drug was added to pre-seeded plates in media containing 1% DMSO vehicle, using a Robbins Hydra 96 micro dispenser. Two 96-well plates of cells were used as vehicle controls. The plates were incubated for 3 days. Percent viability was scored by incubating cells for 3 h with resazurin sodium (0.023 mg/mL, Sigma R7017). The reaction was stopped by the addition of SDS (1% final concentration). Fluorescence Ex/Em 540/590 was read in a Biotek Synergy H1 plate reader (Winooski, VT). The fluorescence values for the vehicle plates were averaged and percent viability was determined by the formula: Percent viability=[…]/(average vehicle−average resazurin in media blank)×100. We removed drugs that were undetectable, or out of range, by resazurin assay, leaving 118 drugs to assess in the study (TABLE 3). Values with more than a 1.5-fold change in both RAMS11 Clone1 and Clone2 overexpressing cell lines were used to determine significance. Individual drug IC50 assays were done in a similar manner as described above with CRISPR KO cells. Assays were repeated more than three times.

[2] = tested on: SW620 cells with silenced RAMS11; assay: Drug IC50 / cell viability assays in cells with transient silencing of RAMS11
[3] = tested on: HT29 RAMS11 overexpressing cells; assay: High-throughput viability assay (resazurin), 119 FDA-approved anticancer drugs, RAMS11 overexpressing cells (Clone1, Clone2); details: for effect of cell viability: HT29 RAMS11 overexpressing cells; for Viability Fold Change: 72 h, vs empty vector control
wildtype (WT) HT29 cells = assay: Tail vein lung metastasis model, 5FU treatment, BLI imaging, wildtype cells; type: in vivo, NOD scid mice; details: WT cell-injected mice, 50 mg/kg 5FU, Week 3
Experimental: (§2) To determine if cells with high RAMS11 expression promote resistance to fluorouracil (5FU) treatment, 9-week-old female NOD scid mice were injected with 1 e6 wildtype (WT) or RAMS11-overexpressing (RAMS11) HT29 cells (with GFP-luciferase incorporated) via the tail vein, a common model of lung metastasis^13. Seventy-two hours after tumor cell injection mice were subcutaneously treated with vehicle (PBS) or 50 mg/kg 5FU and imaged weekly. […] Further, high expression of RAMS11 promoted resistance to treatment with 5FU.

[4] = tested on: RAMS11-overexpressing (RAMS11) HT29 cells; assay: Tail vein lung metastasis model, 5FU treatment, BLI imaging, RAMS11-overexpressing cells; type: in vivo, NOD scid mice; details: RAMS11 cell-injected mice, 50 mg/kg 5FU
Experimental: as §2

TOP2α promoter = assay: Chromatin immunoprecipitation (ChIP) qPCR at TOP2α promoter, LoVo; type: cell-based; details: LoVo cells
Experimental: ChIP qPCR assays were conducted by first sonicating five million cells in SDS lysis buffer (1% SDS, 500 mM EDTA, 50 mM Tris-HCl pH 8). […] The next day Dynabeads Protein G (Invitrogen) were added to the antibody lysate mixture and rotated for 1 h. Bead/lysate mixture was then washed once with low salt wash buffer (0.1% SDS, 1% Triton X-100, 2 mM EDTA, 20 mM Tris-HCl pH 8, 150 mM NaCl), then high salt buffer (0.1% SDS, 1% Triton X-100, 2 mM EDTA, 20 mM Tris-HCl pH 8, 500 mM NaCl), lithium chloride wash buffer (0.25 M lithium chloride, 1% NP40, 1% sodium deoxycholate, 1 mM EDTA, 10 mM Tris-HCl pH 8), and finally two washes with Tris-HCl EDTA buffer (10 mM Tris-HCl pH 8, 1 mM EDTA). DNA was eluted by incubating beads for 30 min at room temperature with SDS elution buffer (1% SDS, 0.1 M sodium bicarbonate), followed by 1.25 M NaCl and 2.5 mg/mL RNAse A at 95° for 15 min shaking followed by addition of proteinase K buffer (1 μL 10 mg/mL proteinase K, 5 μL […], 10 μL 1 M Tris pH 7.5) shaking at 60° for 15 min. DNA was then isolated using phenol:chloroform:isoamyl alcohol extraction following the general protocol as mentioned above. […] The % input calculations were determined by comparing CT values from input DNA and ChIP DNA for the TOP2A target promoter region using the following equation: % Input=% of starting input fraction×2^[CT(input)−CT(Chlp)] […]

[5] = SW620, RAMS11 siRNA1 relative to scrambled control
[6] = SW620, RAMS11 siRNA2 relative to scrambled control
[7] = OE1 (RAMS11 overexpression clone 1), 0.1 uM drug
[8] = OE1 (RAMS11 overexpression clone 1), 1 uM drug
[9] = OE1 (RAMS11 overexpression clone 1), 10 uM drug
[10] = OE2 (RAMS11 overexpression clone 2), 0.1 uM drug
[11] = OE2 (RAMS11 overexpression clone 2), 1 uM drug
[12] = OE2 (RAMS11 overexpression clone 2), 10 uM drug

For “ASO #1: LNA GapmeR antisense oligonucleotide against RAMS11: CAACTTCCAGCAAGAT (SEQ ID NO: 41) (LNA gapmer, pattern not given here)”, the RAMS11 knockdown (RAMS11) was “most potent” and the cell viability (LoVo cells) was “do not alter cell viability”.
With “ASO #2: LNA GapmeR antisense oligonucleotide against RAMS11: AGAACTGCTAAAAGTG (SEQ ID NO: 42) (LNA gapmer, pattern not given here)” the RAMS11 knockdown (RAMS11) was “most potent” and the cell viability (LoVo cells) was “do not alter cell viability”.
With CCc1c2c(nc3ccc(OC(=O)N4CCC(N5CCCCC5)CC4)cc13)-c1cc3c(c(=O)n1C2)COC(=O)[C@]3(O)CC [irinotecan] the “effect of cell viability” value [1] was “did not see a significant effect”, the “increase in drug sensitivity” value [2, 5] was > 3.17 fold and the “increase in drug sensitivity” value [2, 6] was > 11.8 fold. For the same compound, the “effect of cell viability” value [3] was “did not see a significant effect”.
O=c1[nH]cc(F)c(=O)[nH]1 [5-FU, fluorouracil, reference compound] was tested, and the “increase in drug sensitivity” value ([1]; LoVo RAMS11 CRISPR1 compared with wild-type cells) was 1.7 fold, the “increase in drug sensitivity” value ([1]; LoVo RAMS11 CRISPR2 compared with wild-type cells) was 5.8 fold and the “decrease in ex vivo BLI of lung tissue” value (wildtype (WT) HT29 cells) was 55%. For the same compound, the “change between vehicle and 5FU-treated mice, in vivo and ex vivo lung BLI” value [4] was “no significant change”, the “increase in drug sensitivity” value [2, 5] was > 1.53 fold and the “increase in drug sensitivity” value [2, 6] was > 1.59 fold. For the same compound, the “Viability Fold Change” value [3, 7] was 0.9856, the “Viability Fold Change” value [3, 8] was 0.9553 and the “Viability Fold Change” value [3, 9] was 0.9891. The “Viability Fold Change” value [3, 10] was 0.9406, the “Viability Fold Change” value [3, 11] was 0.9417 and the “Viability Fold Change” value [3, 12] was 1.021.
With “CBX4 siRNA: custom silencer select siRNA targeting CBX4, SEQ ID NO: 35 and 36 (chain 1 UAUGGGUUCAUCCAGGUCUGA; chain 2 AGACCUGGAUGAACCCAUATT; chemistry not given here)” the “H3K4me3 at the TOP2α promoter” value (TOP2α promoter) was “decrease” and the “decrease in CBX4 occupancy at the TOP2α promoter” value (TOP2α promoter) was 78%.
COc1cccc2c1C(=O)c1c(O)c3c(c(O)c1C2=O)C[C@@](O)(C(=O)CO)C[C@@H]3O[C@H]1C[C@H](N)[C@@H](O)[C@H](C)O1 [epirubicin HCl, reference compound] was tested, and the “increase in drug sensitivity” value ([1]; LoVo RAMS11 CRISPR KO vs wild-type treated cells, 0.5 μM doxorubicin or 0.7 μM epirubicin) was 1.5 fold and the “increase in drug resistance in HT29 RAMS11 overexpressing cells” value ([3]; topoisomerase inhibitors, vs empty vector cells) was “at least a two-fold increase in drug resistance”.
In the case of O=C1[O][Pt]2([NH][C@@H]3CCCC[C@H]3[NH]2)[O]C1=O [oxaliplatin, reference compound], the “effect of cell viability” value [1] is reported as “did not see a significant effect”, the “effect of cellular viability” value ([2]; SW620 cells with silenced RAMS11) is reported as “did not have a significant effect” and the “effect of cell viability” value [3] is reported as “did not see a significant effect”. For the same compound, the “Viability Fold Change” value [3, 7] was 0.9127, the “Viability Fold Change” value [3, 8] was 0.9881 and the “Viability Fold Change” value [3, 9] was 1.33. The “Viability Fold Change” value [3, 10] was 0.9671, the “Viability Fold Change” value [3, 11] was 1.102 and the “Viability Fold Change” value [3, 12] was 1.427.
